Test results published in patent publication US6867179B1, “Methods of inducing hair growth and coloration” (Trustees of Boston University, priority 1994, dated 2005).

Legend:
[1] = system: human melanocytes; assay type: cell-based
[2] = system: MM4 cells; test: MM4 cell yields after UV or sham irradiation with growth factor supplementation; assay type: cell-based, human; conditions: UV 10 mJ/cm^2, 50 ng/ml NGF, 4 experiments
Description: Melanocytes or MM4 cells were plated in 60 mm diameter tissue culture dishes. Melanocytes were maintained in Medium 199 supplemented with 7% fetal bovine serum (FBS), 10 ng/ml epidermal growth factor (Collaborative Research), […] (Sigma), […] (Collaborative Research), […] (Sigma), 1.4×10^−6 M hydrocortisone (Calbiochem), […] (Calbiochem), and 10 ng/ml basic fibroblast growth factor (Collaborative Research) (basal melanocyte medium). MM4 cells were maintained in 55.3% DME, 27.6% L15, 15% FBS, 1% nonessential amino acids (GIBCO BRL), 2 mM glutamine and 10 µg/ml insulin. After 24 hours, medium was replaced by phosphate buffered saline (PBS) and cells were irradiated using a 1 KW xenon arc solar simulator (XMN 1000-21, Optical Radiation Corp., Azuza, Calif.) with 5, 10, or 25 mJ/cm^2 UV through the petri dish plastic cover. Irradiance was adjusted to 4×10^−5 UV cm^−2 and metered with a research radiometer (model IL1700A, International Light, Newburyport, Mass.) fitted with a UVB probe at 285 Å 5 nm. After UV irradiation, cells were maintained in their respective media without FBS for 2 days (MM4 cells) or 3 days (melanocytes) and processed as indicated. Sham irradiated control cultures were handled identically but laced under a dark cloth adjacent to the UV beam.
FIGS. 2B and 2D show MM4 cell yields 24-72 hours after a single UV irradiation of 10 mJ/cm^2. FIGS. 2C and 2e show MM4 cell yields 24-72 hours after sham irradiation. Cells in FIGS. 2B and 2C were supplemented with 50 ng/ml NGF or diluent alone. Cells in FIGS. 2D and 2E were supplemented with 50 ng/ml bFGF or diluent alone.
Melanocytes or MM4 cells were plated as described in Example 1. After irradiation, melanocytes were maintained in basal melanocyte medium lacking FBS and hydrocortisone, with 50 ng/ml NGF or diluent alone (melanocyte medium). MM4 cells were maintained in DME supplemented with 50 ng/ml NGF or diluent alone.

[3] = system: Keratinocytes; test: Keratinocyte DNA fragmentation and cell yield after UV irradiation with NGF; assay type: cell-based, human
Description: Keratinocytes were plated in 60 mm diameter tissue culture dishes in MCDB153 supplemented with epidermal growth factor (0.1 ng/ml human recombinant), insulin (5 microg/ml), hydrocortisone (0.5 microg/ml, calcium (0.15 mM), bovine pituitary extract (BPE), (2 ml per 500 ml medium), gentamicin (50 microg/ml), and amphotericin-B (50 ng/ml) (karetinocyte basal medium). Preconfluent cells were irradiated in phosphate buffered saline PBS) using a 1 KW xenon arc solar simulator (XMN 1000-21, Optical Radiation Corp., Azuza, Calif.) with 15 or 25 mJ/cm^2 UV through the petri dish plastic cover as described in Example 7. After UV irradiation, cells were maintained in their basal medium 3 days and processed as indicated. Sham irradiated control cultures were handled identically but placed under a dark cloth adjacent to the UV beam.
Cells were washed with cold PBS and disrupted in lysis buffer pH8 (10 mM tris, 150 mM NaCl, 0.1 mM EDTA, 1% SDS, 200 µg/ml proteinase K). After 15 hour incubation at […], samples were extracted twice with phenol plus chloroform (1:1, V/V) and precipitated overnight with ethanol (2.5×volume) and 3 M sodium acetate (1/10×volume). The DNA was then digested with DNAse free ribonuclease (10 microg/ml) for one hour at 37C, separated on 1% agarose gel and stained with ethidium bromide.
Keratinocytes were UV-irradiated as in Example 9. After irradiation cells were placed in fresh keratinocyte medium containing 50 ng/ml NGF or diluent alone. DNA fragmentation was determined as in Example 9. […] The standard (STD) is 100 bp DNA ladder (Gibco/BRL). […] UV irradiated keratinocytes were growth arrested as expected.

Substance: NGF: nerve growth factor, neurotrophin ligand of p75 NGF-R and trk
- Cell yields of melanocytes versus diluent alone ([1]; UV 10 mJ/cm^2, 50 ng/ml NGF, 7 experiments): significantly higher
- Cell yields, NGF-treated versus control cultures ([1]; determined daily for 19 days): up to 6.5 fold
- Thymidine labeling index, NGF-treated versus control cultures ([1]; determined daily for 19 days): ≤ 10 fold
- Appearance of cultures after UV irradiation ([1]; melanocytes and MM4 cells, 50 ng/ml NGF): appeared healthy
- Cell yields of MM4 cells versus diluent alone [2]: significantly higher
- DNA fragmentation of UV irradiated keratinocytes ([3]; 50 ng/ml NGF): not fragmented
- Increase in keratinocyte cell yields ([3]; NGF supplemented medium, within 5 days): 40%
- Decrease in keratinocyte cell yield ([3]; UV irradiated, 50 ng/ml NGF, within 24 hours, diluent 50%): 30%
